We go through two compounds from ChEMBL document CHEMBL4414564, “Viola "inconspicua" No More: An Analysis of Antibacterial Cyclotides” (2019).

Type in all cases: functional
Assay [1] relates to Escherichia coli. Briefly: Antibacterial activity against Escherichia coli ATCC 25922 assessed as reduction in bacterial cell viability incubated for 4 hrs by resazurin assay. To be noted: ATCC 25922, 4 h. (Resazurin is reduced to fluorescent resorufin, in cell work by metabolically active cells.)
The test system of the next assay is Klebsiella pneumoniae. Briefly: Antibacterial activity against rifampin and streptomycin resistant Klebsiella pneumoniae VK148 assessed as reduction in bacterial cell viability incubated for 4 hrs by resazurin assay. Particulars: VK148, 4 h.
The subject of assay [2] is Escherichia coli. Description: Antibacterial activity against Escherichia coli ATCC 25922 assessed as reduction in […] at 60 uM incubated for 4 hrs by resazurin assay relative to control. Further details: scale not given: the % may be the effect or the level left.

Broadly, the MIC is the lowest concentration found to suppress growth.

In brackets after ≈: the same amount, converted by molar mass. Bridge positions count the residues as written; N and C are the ends. Square brackets hold non-standard residues; d marks the D form. Peptide text beside a SMILES is read from it. ξ: configuration not given here. Thr(3ξ) = CC(O)[C@H](N)C(=O)O

On to `CC[C@H](C)[C@@H]1NC(=O)[C@H](C)NC(=O)[C@H](CO)NC(=O)[C@H](CO)NC(=O)[C@H]([C@@H](C)CC)NC(=O)[C@@H]2CSSC[C@@H]3NC(=O)[C@H](C(C)C)NC(=O)[C@H](CCCCN)NC(=O)[C@@H](CO)NC(=O)[C@H](CCCCN)NC(=O)[C@H]4CSSC[C@H](NC(=O)[C@H](CO)NC(=O)[C@H](CCC(=O)O)NC(=O)CNC(=O)[C@H](CSSC[C@H](NC(=O)CNC1=O)C(=O)N[C@@H](CO)C(=O)N4)NC(=O)[C@@H]1CCCN1C(=O)[C@H]([C@@H](C)CC)NC(=O)CNC(=O)[C@H](CC(N)=O)NC(=O)[C@@H](CCCNC(=N)N)NC(=O)[C@H](Cc1ccc(O)cc1)NC3=O)C(=O)N[C@@H](C(C)C)C(=O)N[C@@H](Cc1c[nH]c3ccccc13)C(=O)N[C@@H]([C@@H](C)CC)C(=O)N1CCC[C@H]1C(=O)N2`, for which the minimal inhibitory concentration (MIC) is 5 µM (≈ 15.7 µg/mL) in the assay with Escherichia coli [1] and less than 12.5 µM with Klebsiella pneumoniae.
Turning to `CC[C@H](C)[C@@H]1NC(=O)[C@H](CO)NC(=O)[C@H](C)NC(=O)[C@H](CO)NC(=O)[C@H](Cc2ccc(O)cc2)NC(=O)[C@@H]2CSSC[C@@H]3NC(=O)[C@H](C(C)C)NC(=O)[C@H](CCCCN)NC(=O)[C@H](Cc4ccc(O)cc4)NC(=O)[C@H](CCCCN)NC(=O)[C@H](CO)NC(=O)[C@@H]4CSSC[C@H](NC(=O)[C@H](C(C)O)NC(=O)[C@H](CCC(=O)O)NC(=O)CNC(=O)[C@H](CSSC[C@H](NC(=O)CNC1=O)C(=O)N[C@@H](CO)C(=O)N4)NC(=O)[C@H](C)NC(=O)CNC(=O)[C@@H]1CCCN1C(=O)[C@H](CC(N)=O)NC(=O)CNC(=O)[C@H](CC(N)=O)NC(=O)[C@H](CC(C)C)NC(=O)[C@H]([C@@H](C)O)NC3=O)C(=O)N[C@@H]([C@@H](C)CC)C(=O)N[C@@H](Cc1c[nH]c3ccccc13)C(=O)NCC(=O)N[C@@H](CCCCN)C(=O)N2` (stereo partly drawn) (cyclo(ACGE[Thr(3ξ)]CIWGKCYSASIGCSCSKYKVCTLNGNPG); disulfide 2-18, 6-20, 11-26), the Activity in the assay on Escherichia coli [2] is 50%.
